According to patent publication US9872853B2, “2,3-dihydro-1H-indole compounds” (Eli Lilly and Company, priority 2016, dated 2018):
Values joined by “and” are separate entries in the source; they are usually repeats but may differ in a detail not shown here. Equal entries are not always repeated. Where two headings read alike, the source gives them in different places.

Columns and labels:
[1] = target: T1, IDO1 activity in SKOV3 (Homo sapiens, UniProt P14902); experiment: Kynurenine production assay (SKOV3); assay type: cell-based; conditions: SKOV3 cells, 18 hours, MS measurement in media
T1 construct: an ovarian cancer cell line that intrinsically expresses IDO1; host or cells: SKOV3 (in vitro); SKOV3X (Indiana University Research and Technology Center) as intraperitoneal xenograft tumours in athymic nude mice
T1 sequence (P14902 whole entry): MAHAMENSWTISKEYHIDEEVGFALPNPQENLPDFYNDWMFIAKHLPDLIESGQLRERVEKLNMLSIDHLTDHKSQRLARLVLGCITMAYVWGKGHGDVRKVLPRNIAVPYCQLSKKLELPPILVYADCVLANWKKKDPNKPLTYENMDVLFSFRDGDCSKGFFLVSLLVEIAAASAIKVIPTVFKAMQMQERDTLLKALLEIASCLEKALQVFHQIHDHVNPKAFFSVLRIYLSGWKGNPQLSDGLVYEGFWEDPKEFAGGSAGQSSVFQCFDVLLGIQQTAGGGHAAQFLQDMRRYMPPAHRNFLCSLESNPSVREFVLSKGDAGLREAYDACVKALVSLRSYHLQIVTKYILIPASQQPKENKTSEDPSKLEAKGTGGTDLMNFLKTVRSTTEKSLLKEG
Procedure: The purpose of this assay is to evaluate the inhibition of the production of kynurenine, N-formyl-kynurenine and the depletion of tryptophan in IDO1 expressing cancer cells and assess whether compounds are overtly toxic to these cells. Exemplary compounds are tested for the inhibition of IDO1 activity in SKOV3 (ATCC, Cat# HTB-77), an ovarian cancer cell line that intrinsically expresses IDO1. Due to IDO1 expression, SKOV3 cells degrade tryptophan with the concomitant production of kynurenine and compounds are tested for their ability to inhibit the production of kynurenine, N-formyl-kynurenine and the depletion of tryptophan. Optionally, overt toxicity of compounds can be assessed by monitoring cell viability.
Plate SKOV3 cells, an IDO1-expressing ovarian cancer cell line, at 20,000 cells per well in 100 μL of McCoys 5A media (Gibco, Cat#16600-082) supplemented with non-essential amino acids (Gibco, Cat#11140-050), 1 mM sodium pyruvate (Gibco, Cat#11360-070), and 10% fetal bovine serum, complete media, in a 96 well tissue culture plate (BD Biosciences). Then, incubate cells for 16 hours in a 37° C. incubator with 5% CO2. […] Optionally, return original plate(s) to the incubator for an additional 24 hours and measure the viability of cells by adding an equal volume of CELLTITER-GLO® (Promega) and measure luminescence in an PERKIN ELMER® EnVision plate reader. […]

[2] = tested on: Colon26 tumors; experiment: Mouse syngeneic Colon26 model for colon cancer; assay type: in vivo, BALB/c mice
Procedure: Grow the mouse BALB/c-derived Colon26 colon cancer cell line in RPMI 1640 medium supplemented with 10 mM HEPES, […] sodium pyruvate, and 10% fetal bovine serum. Harvest sub-confluent cells with trypsin and rinse twice with complete growth medium lacking serum. Initiate subcutaneous tumors by injecting 1×10^6 cells resuspended in HBSS in the rear flank of immune-competent BALB/c mice (Envigo, Indianapolis, Ind.). Six days after tumor implantation, randomize animals based on body weight and place into their respective treatment groups using the number of animals per group as indicated.
(§1) Capture tumor size and body weight using Study Director. Estimate tumor volume (V) by using the formula: V=0.536×L×W^2 where L=larger measured diameter and W=smaller of the perpendicular diameter. Transform the tumor volume data to a log scale to equalize variance across time and treatment groups. Analyze the log volume data with a two-way repeated measures analysis of variance by time and treatment using the MIXED procedures in SAS software (Version 9.2). The correlation model for the repeated measures is Spatial Power. Compare treated groups to the control group at each time point. Use the MIXED procedure also separately for each treatment group to calculate adjusted means and standard errors at each time point. Both analyses account for the autocorrelation within each animal and for the loss of data that occurs when animals with large tumors are removed from the study early. Calculate relative changes in tumor volume (% T/C) using the tumor volume measurements taken nearest to the last day of dosing with Example 1A, using the formula % T/C=100×ΔT/ΔC, where T=mean tumor volume of the compound treated group, ΔT=mean tumor volume of the compound treated group minus the mean tumor volume on the baseline day, C=mean tumor volume of the control (vehicle) group, and ΔC=mean tumor volume of the control group minus the mean tumor volume on the baseline day. If ΔT<0, then a tumor regression value is calculated instead of % T/C whereby % Regression=100×ΔT/Tinitial such that Tinitial=mean tumor volume on the baseline day.
(§2) Assess antitumor efficacy of Example 1A and LY3300054 alone, or in combination by measuring tumor volume by three dimensional caliper measurements twice a week during the course of the study. Measure body weight twice weekly during the course of the study, as a general indicator of tolerability.
(§3) Formulations for Example 1A and LY3300054: Formulate Example 1A on a weekly basis in 1% HEC/0.25% Tween 80/0.05% Antifoam and store at 4° C. Solublize LY3300054 in phosphate buffered saline and store at 4° C.
(§4) Control group(s): For single agent efficacy studies, administer vehicle for Example 1A alone. For combination studies, administer both vehicles used for Example 1A and LY3300054 according to the same schedule for each compound, respectively. For monotherapy groups in combination efficacy studies, treat the animals with the desired compound and the vehicle for the compound not being dosed following the schedule for the non-dosed compound.
Treat female BALB/c mice (n=10) bearing Colon26 tumors with Example 1A twice daily for 21 days by oral gavage at doses of 10, 50, and 100 mg/kg. Start administration of Example 1A six days after tumor implantation, and monitor tumor growth and body weight twice a week for the duration of the treatment period.

[3] = tested on: L55 tumors; experiment: L55 humanized tumor model with hPBMC challenge; assay type: in vivo; conditions: for tolerability (body weight): with or without hPBMCs
Text: Grow the human NSCLC cell line, L55, in RPMI 1640 medium supplemented with 10% fetal bovine serum. Harvest sub-confluent cells with trypsin and rinse twice with growth medium lacking serum. Initiate the growth of subcutaneous tumors by injecting 5×10^6 in a 1:1 mixture of HBSS and MATRIGEL® (BD Biosciences, Franklin Lakes, N.J.) in the rear flank of NOD.Cg-Prkdc^scidI12rg^tm1Wjl/SzJ mice more commonly known as NOD scid gamma chain knockout mice (NSG) mice (The Jackson Laboratory, Bar Harbour, Me.), which lack T cells, B cells, NK cells, and are deficient in cytokine signaling. When the mean tumor volume reaches approximately 200-300 mm^3, randomize the animals by tumor size and body weight and place into their respective treatment groups as indicated. After randomization, challenge tumor-bearing mice with PBS alone (no PBMCs) or with PBS containing 1×10^7 human PBMCs into the tail vein of recipients.
as §1, §2, §3
as §4, with “compound. […]” for “compound.”

[4] = target: T2, His6-IDO1 (Homo sapiens, UniProt P14902); experiment: Binding assay for IDO1: competition with a tritiated spy molecule; conditions: displacement of 50 nM tritiated spy molecule, four hours, room temperature
T2 construct: purchased Proteros PR-0278
T2 sequence (P14902 whole entry): as above
Procedure: Specifically, this assay assesses the ability of test compounds to compete with a tritiated spy molecule 1-(2,4-difluorophenyl)-3-[[1-(3,4,5-tritritiobenzoyl)indolin-5-yl]methyl]urea and allows for the calculation of the binding affinity, IC50.
Competitive Binding of 1-(2,4-Difluorophenyl)-3-[[1-(3,4,5-tritritiobenzoyl)indolin-5-yl]methyl]urea to IDO1
Load 300 nM His6-IDO1 (Proteros, SwissProtID P14902, Cat# PR-0278, batch 19/59, 98 mg/mL in 25 mM MES pH 6.5, 150 mM KCl, purity >95%) diluted in DPBS to each well of nickel coated plate (Sigma, Cat#55563) and incubate overnight at 4° C. Remove unbound proteins by washing plate with 300 μL DPBS four times in BIOTEK® Microplate Washer. Add 100 μL of blocking buffer (0.05% TWEEN® 20/DPBS) per well and incubate for one hour at room temperature to reduce nonspecific binding. While blocking the plate, prepare 50 nM 1-(2,4-difluorophenyl)-3-[[1-(3,4,5-tritritiobenzoyl)indolin-5-yl]methyl]urea (Biocair, Cat# TRQ41455) by diluting in DPBS, and serially dilute unlabeled stock solution 2.5-fold in DMSO to generate an eleven point dilution curve. […] Quantitate total bound and nonspecific binding (NSB) of the 1-(2,4-difluorophenyl)-3-[[1-(3,4,5-tritritiobenzoyl)indolin-5-yl]methyl]urea ligand using a Trilux Microbeta Counter. […]

| Compound | IC50 ([1]; read-out: IC50 for inhibiting N-formyl-kynurenine) | IC50 ([1]; read-out: IC50 for inhibiting kynurenine) | reduction in body weight compared to baseline ([2]; 10 mg/kg twice daily, day 20) | reduction in body weight compared to baseline ([2]; 50 mg/kg twice daily, day 20) | reduction in body weight compared to baseline ([2]; 100 mg/kg twice daily, day 20) | tolerability (body weight changes) ([2]; 10, 50 and 100 mg/kg twice daily for 21 days, versus vehicle-treated mice) | tumor growth inhibition (statistics) ([2]; only 50 and 100 mg/kg doses, day 20) | tumor growth inhibition ([3]; 75 mg/kg twice daily oral, absence of hPBMCs, versus vehicle without PBMCs) | tolerability (body weight) ([3]; 75 mg/kg twice daily oral) | IC50 [4] | effect on tumor growth ([3]; 10 mg/kg intraperitoneal once a week for 4 weeks, with hPBMCs, versus vehicle) | change in tumor volume (% T/C) ([3]; 10 mg/kg intraperitoneal once a week, with hPBMCs, day 37, versus vehicle lacking PBMCs) | tolerability (body weight) ([3]; 10 mg/kg intraperitoneal once a week) |
| --- | --- | --- | --- | --- | --- | --- | --- | --- | --- | --- | --- | --- | --- |
| C[C@@H](NC(=O)c1ccc(F)cc1)c1ccc2c(c1)CCN2C(=O)C1CCOCC1 (single isomer, unassigned) [Example 1A] | 7 nM | 7 nM | 2.5% | 8% | 2.5% | no significant tolerability issues | statistically (p<0.001) relevant growth inhibition | did not result in significant tumor growth inhibition | No significant tolerability issues | < 1500 nM and 33 nM | – | – | – |
| C[C@H](NC(=O)c1ccc(F)cc1)c1ccc2c(c1)CCN2C(=O)C1CCOCC1 (single isomer, unassigned; isomer 2) [Example 1B] | – | – | – | – | – | – | – | – | – | < 1500 nM | – | – | – |
| LY3300054: an antibody that binds human PD-L1 (SEQ ID NO: 1), comprising a light chain (LC) and a heavy chain (HC) | – | – | – | – | – | – | – | – | – | – | statistically significant tumor growth inhibition | 75.7% | No significant tolerability issues |
